Data published in patent publication US10682311B2, “Intranasal dexmedetomidine compositions and methods of use thereof” (BAUDAX BIO, INC., priority 2011, dated 2020).

Test: clinical
Settings: human, in vivo, 35 ug
Excerpt: This was a Phase 1, open-label, two period, repeated dose study in healthy subjects to investigate the safety, tolerability, and pharmacokinetics of intranasal dexmedetomidine. A total of 12 subjects (6 male and 6 female) were planned and enrolled. Healthy subjects between the ages of 18 and 50 years, inclusive, were screened for participation at one study site in the United States within 28 days before study drug administration. Medical history, physical examination, baseline laboratory testing, 12 lead electrocardiogram (ECG), pregnancy testing, vital sign measurements, and informed consent were completed during the screening visit.
During Period 1, subjects received two doses of study medication, separated by six hours. During Period 2, study participants received seven doses of study medication administered at six hour intervals. Study Periods were separated by not less than 24 hours between the last dose in Period 1 and the first dose in Period 2.
Serial blood samples were collected at defined intervals during each study period in order to evaluate the pharmacokinetic properties of intranasally administered dexmedetomidine, and its metabolite. Whole blood was collected in 6 mL evacuated collection tubes treated with K2EDTA.
Plasma samples were to be collected within ±2 minutes of the scheduled post-dose time through 60 minutes after dosing, samples collected 75 minutes to 6 hours after dosing were able to be collected within ±5 minutes, and samples collected at and beyond 12 hours after dosing were able to be collected within ±15 minutes of scheduled post-dose time. Actual times were to be recorded for all events, and any deviation outside the specified ranges were required to be clearly documented in the subject's study records.
Immediately after the collection of each sample, the collection tube was to be gently inverted and then placed in wet ice. Within 30 minutes of withdrawal, the tubes were centrifuged at about 2,000×gravity for 10-15 minutes to separate the cells from the plasma. No aids for separation were to be used. Two aliquots (≥0.5 mL each) of plasma were transferred from each sample with clean pipettes and placed in 2 polypropylene storage tubes in equal volumes. The storage tubes were labeled with the following information: protocol number, subject number, study day and relative time of sample (e.g., Period 1, Dose 1, 10 Minutes after dosing), and biologic matrix to be analyzed (e.g., plasma). Within 60 minutes of the collection time, the storage tubes were to be placed into a freezer at −20° C. or below; they remained in the freezer until shipment for analysis.
For pharmacokinetic analyses in Period 1, up to 12 blood samples were collected from each subject prior to and following administration of each study dose. These were collected at predose (Time 0) and at the following approximate times after each dose of study medication: 10, 20, 30, 45, 60, and 90 minutes and 2 and 4 hours; additional blood samples were collected at 6, 12 and 18 hours after Dose 2. In Period 2, up to 13 blood samples were collected from each subject prior to and following administration of Dose 1 and Dose 7. These were collected at predose (Time 0) and at the following approximate times after dosing with study medication: 10, 20, 30, 45, 60, and 90 minutes and 2 and 4 hours; additional blood samples were collected at 6, 12, 18 and 24 hours after Dose 7. Blood samples for Dose 2 through Dose 6 were collected at predose (Time 0) only. […]

Which AUC(0-t) (both, AUC0-6) does the source give for `Cc1cccc([C@H](C)c2cnc[nH]2)c1C` [Dexmedetomidine, 5-[(1S)-1-(2,3-dimethylphenyl)ethyl]-1H-imidazole] here?
The AUC(0-t) was 0.39 ng·h/mL.

And the AUC(0-t) (both, AUClast)?
The AUC(0-t) was 0.38 ng·h/mL.

What about the Cmax (both, Cmax) of the same molecule?
Its Cmax is 0.09 ng/mL.

What about the Tmax (both, Tmax) of the same molecule?
The Tmax was 1.26 h.

And the “accumulation (AUC for Dose 1 compared to Dose 7)” value (inhaled or intranasal)?
Its value is “little evidence of accumulation”.
